Experimental data reported in patent US12077503B2, “Substituted cyclic amides and their use as herbicides” (FMC CORPORATION, priority 2015, dated 2024).

Assays:
Type in all cases: in vivo
[1] = test system: redroot pigweed (Amaranthus retroflexus); experiment: Test G Pre-Emergence Protocol; conditions: Amaranthus retroflexus, pre-emergence, 312 h, evaluated after 13 days
Outline: (§1)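 Visual injury (0–100) at day 13 after a single pre-emergence spray. Rates: 15.625, 62.5, 250 g/ha in acetone–water 50:50 with 0.5% Tween 20. Growth conditions: 24/16° C, 14 h light, 65% humidity.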

[2] = test system: barnyardgrass (Echinochloa crus-galli); experiment: Test G Pre-Emergence Protocol; conditions: Echinochloa crus-galli, pre-emergence, 312 h, evaluated after 13 days
Outline: as §1

[3] = test system: ivy-leaved morning glory (Ipomoea hederacea); experiment: Test G Pre-Emergence Protocol; conditions: Ipomoea, pre-emergence, 312 h, evaluated after 13 days
Outline: as §1

[4] = test system: giant foxtail (Setaria faberi); experiment: Test G Pre-Emergence Protocol; conditions: Setaria faberi, pre-emergence, 312 h, evaluated after 13 days
Outline: as §1

[5] = test system: velvetleaf (Abutilon theophrasti); experiment: Test G Pre-Emergence Protocol; conditions: Abutilon theophrasti, pre-emergence, 312 h, evaluated after 13 days
Outline: as §1

corn (Zea mays) [6] = experiment: Test G Pre-Emergence Protocol; conditions: Zea mays, pre-emergence, 312 h, evaluated after 13 days
Outline: as §1

[7] = test system: redroot pigweed (Amaranthus retroflexus); experiment: Test G Post-Emergence Protocol; conditions: Amaranthus retroflexus, post-emergence, 312 h, read-out: Pigweed, Redroot damage rating
Outline: (§2)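 Pot-grown seedlings, 8 days old, raised in a glasshouse at 24/16 °C day/night with 14 h light and 65% humidity, were sprayed post-emergence with test compound in acetone/water (50:50) plus 0.5% Tween 20 at 15.625, 62.5 or 250 g/ha. Damage was scored visually 13 days later on a 0–100 scale (100 = total damage).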

[8] = test system: barnyardgrass (Echinochloa crus-galli); experiment: Test G Post-Emergence Protocol; conditions: Echinochloa crus-galli, post-emergence, 312 h, read-out: Barnyardgrass damage rating
Outline: as §2

[9] = test system: ivy-leaved morning glory (Ipomoea hederacea); experiment: Test G Post-Emergence Protocol; conditions: Ipomoea, post-emergence, 312 h, read-out: Morningglory, Ivy-leaved damage rating
Outline: as §2

[10] = test system: giant foxtail (Setaria faberi); experiment: Test G Post-Emergence Protocol; conditions: Setaria faberi, post-emergence, 312 h, read-out: Foxtail, Giant damage rating
Outline: as §2

[11] = test system: velvetleaf (Abutilon theophrasti); experiment: Test G Post-Emergence Protocol; conditions: Abutilon theophrasti, post-emergence, 312 h, read-out: Velvetleaf damage rating
Outline: as §2

corn (Zea mays) [12] = experiment: Test G Post-Emergence Protocol; conditions: Zea mays, post-emergence, 312 h, read-out: Corn damage rating
Outline: as §2

[13] = 15.625 g ai/ha, evaluated after 13 days (100=total damage to plant; 0=no damage to plant)
[14] = 62.5 g ai/ha, evaluated after 13 days, 100=total damage to plant, 0=no damage to plant
[15] = 250 g ai/ha, evaluated after 13 days, 100=total damage to plant, 0=no damage to plant

CN1CCC(NC(=O)[C@H]2C(=O)N(C)C[C@@H]2c2ccc(C(F)(F)F)cc2)C1=O (mixture of isomers) [Compound 1673]
pest or weed control at 15.625 g/ha ([1]; 15.625 g ai/ha, read-out: Pigweed, Redroot damage rating (100=total damage to plant; 0=no damage to plant)): 0% | pest or weed control at 62.5 g/ha ([1]; 62.5 g ai/ha, 100=total damage to plant, 0=no damage to plant, read-out: Pigweed, Redroot damage rating): 0% | pest or weed control at 250 g/ha ([1]; 250 g ai/ha, read-out: Pigweed, Redroot damage rating (100=total damage to plant; 0=no damage to plant)): 0% | pest or weed control at 15.625 g/ha ([2]; 15.625 g ai/ha, read-out: Barnyardgrass damage rating (100=total damage to plant; 0=no damage to plant)): 0% | pest or weed control at 62.5 g/ha ([2]; 62.5 g ai/ha, 100=total damage to plant, 0=no damage to plant, read-out: Barnyardgrass damage rating): 0% | pest or weed control at 250 g/ha ([2]; 250 g ai/ha, read-out: Barnyardgrass damage rating (100=total damage to plant; 0=no damage to plant)): 0% | pest or weed control at 15.625 g/ha ([3]; 15.625 g ai/ha, read-out: Morningglory, Ivy-leaved damage rating (100=total damage to plant; 0=no damage to plant)): 0% | pest or weed control at 62.5 g/ha ([3]; 62.5 g ai/ha, 100=total damage to plant, 0=no damage to plant, read-out: Morningglory, Ivy-leaved damage rating): 0% | pest or weed control at 250 g/ha ([3]; 250 g ai/ha, read-out: Morningglory, Ivy-leaved damage rating (100=total damage to plant; 0=no damage to plant)): 0% | pest or weed control at 15.625 g/ha ([4]; 15.625 g ai/ha, read-out: Foxtail, Giant damage rating (100=total damage to plant; 0=no damage to plant)): 0% | pest or weed control at 62.5 g/ha ([4]; 62.5 g ai/ha, 100=total damage to plant, 0=no damage to plant, read-out: Foxtail, Giant damage rating): 0% | pest or weed control at 250 g/ha ([4]; 250 g ai/ha, read-out: Foxtail, Giant damage rating (100=total damage to plant; 0=no damage to plant)): 0% | pest or weed control at 15.625 g/ha ([5]; 15.625 g ai/ha, read-out: Velvetleaf damage rating (100=total damage to plant; 0=no damage to plant)): 0% | pest or weed control at 62.5 g/ha ([5]; 62.5 g ai/ha, 100=total damage to plant, 0=no damage to plant, read-out: Velvetleaf damage rating): 0% | pest or weed control at 250 g/ha ([5]; 250 g ai/ha, read-out: Velvetleaf damage rating (100=total damage to plant; 0=no damage to plant)): 0% | plant injury at 15.625 g/ha (corn (Zea mays) [6]; 15.625 g ai/ha, read-out: Corn damage rating (100=total damage to plant; 0=no damage to plant)): 0% | plant injury at 62.5 g/ha (corn (Zea mays) [6]; 62.5 g ai/ha, 100=total damage to plant, 0=no damage to plant, read-out: Corn damage rating): 0% | plant injury at 250 g/ha (corn (Zea mays) [6]; 250 g ai/ha, read-out: Corn damage rating (100=total damage to plant; 0=no damage to plant)): 0% | pest or weed control at 15.625 g/ha [7, 13]: 0% | pest or weed control at 62.5 g/ha [7, 14]: 0% | pest or weed control at 250 g/ha [7, 15]: 0% | pest or weed control at 15.625 g/ha [8, 13]: 0% | pest or weed control at 62.5 g/ha [8, 14]: 0% | pest or weed control at 250 g/ha [8, 15]: 0% | pest or weed control at 15.625 g/ha [9, 13]: 0% | pest or weed control at 62.5 g/ha [9, 14]: 0% | pest or weed control at 250 g/ha [9, 15]: 0% | pest or weed control at 15.625 g/ha [10, 13]: 0% | pest or weed control at 62.5 g/ha [10, 14]: 0% | pest or weed control at 250 g/ha [10, 15]: 10% | pest or weed control at 15.625 g/ha [11, 13]: 0% | pest or weed control at 62.5 g/ha [11, 14]: 0% | pest or weed control at 250 g/ha [11, 15]: 0% | plant injury at 15.625 g/ha (corn (Zea mays) [12]; [13]): 0% | plant injury at 62.5 g/ha (corn (Zea mays) [12]; [14]): 0% | plant injury at 250 g/ha (corn (Zea mays) [12]; [15]): 0%
